In US20110086759A1, “CHEMICAL COMPOUNDS” (SYNGENTA CROP PROTECTION, INC., priority 2007, published 2011):

Legend:
Assay type in all cases: in vivo
[1] = test system: Alopecurus myosuroides (ALOMY); assay: Pre-emergence biological efficacy, glasshouse pot test; conditions: 312 h, pre-emergence; for pest or weed control at 1000 g/ha: rate 1,000 g/ha, evaluated after 13 days (100=total damage to plant; 0=no damage), read-out: Percentage damage caused to weed species, ALOMY
Method in brief: (§1)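 Standard soil, pots, sown then sprayed at day 1 with 1000 or 250 g/ha test compound. Glasshouse: 24/16 °C, 14 h photoperiod, 65% humidity, twice-daily watering. Evaluation day 13, 0–100 damage score.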

[2] = test system: Amaranthus retoflexus (AMARE); assay: as above; conditions: Amaranthus retroflexus, 312 h, pre-emergence; for pest or weed control at 1000 g/ha: rate 1,000 g/ha, evaluated after 13 days (100=total damage to plant; 0=no damage), read-out: Percentage damage caused to weed species, AMARE
Method in brief: as §1

[3] = test system: Echinochloa crus-galli (ECHCG); assay: as above; conditions: 312 h, pre-emergence; for pest or weed control at 1000 g/ha: rate 1,000 g/ha, evaluated after 13 days (100=total damage to plant; 0=no damage), read-out: Percentage damage caused to weed species, ECHCG
Method in brief: as §1

[4] = test system: Ipomea hederaceae (IPOHE); assay: as above; conditions: Ipomoea hederacea, 312 h, pre-emergence; for pest or weed control at 1000 g/ha: rate 1,000 g/ha, evaluated after 13 days (100=total damage to plant; 0=no damage), read-out: Percentage damage caused to weed species, IPOHE
Method in brief: as §1

Setaria faberi (SETFA) [5] = assay: as above; conditions: 312 h, pre-emergence; for pest or weed control at 1000 g/ha: rate 1,000 g/ha, evaluated after 13 days (100=total damage to plant; 0=no damage), read-out: Percentage damage caused to weed species, SETFA
Method in brief: as §1

Solanum nigrum (SOLNI) [6] = assay: as above; conditions: 312 h, pre-emergence; for pest or weed control at 1000 g/ha: rate 1,000 g/ha, evaluated after 13 days (100=total damage to plant; 0=no damage), read-out: Percentage damage caused to weed species, SOLNI
Method in brief: as §1

[7] = test system: Alopecurus myosuroides (ALOMY); assay: Post-emergence biological efficacy, glasshouse pot test; conditions: 312 h; for pest or weed control at 1000 g/ha: Rate 1,000 g/ha, post-emergence spray, evaluated after 13 days (100=total damage to plant; 0=no damage to plant), read-out: Percentage damage caused to weed species, post-emergence, ALOMY
Method in brief: (§2)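 Scored 13 days after spraying on a 0 (no damage) to 100 (total damage) scale. Treatment was a post-emergence spray at 1000 or 250 g/ha, from acetone/water 50:50 plus 0.5% Tween 20, onto 8-day-old plants in soil pots. Growth at 24/16° C, 14 h photoperiod, 65% humidity, watered twice daily.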

[8] = test system: Amaranthus retoflexus (AMARE); assay: as above; conditions: Amaranthus retroflexus, 312 h; for pest or weed control at 1000 g/ha: Rate 1,000 g/ha, post-emergence spray, evaluated after 13 days (100=total damage to plant; 0=no damage to plant), read-out: Percentage damage caused to weed species, post-emergence, AMARE
Method in brief: as §2

[9] = test system: Echinochloa crus-galli (ECHCG); assay: as above; conditions: 312 h; for pest or weed control at 1000 g/ha: Rate 1,000 g/ha, post-emergence spray, evaluated after 13 days (100=total damage to plant; 0=no damage to plant), read-out: Percentage damage caused to weed species, post-emergence, ECHCG
Method in brief: as §2

[10] = test system: Ipomea hederaceae (IPOHE); assay: as above; conditions: Ipomoea hederacea, 312 h; for pest or weed control at 1000 g/ha: Rate 1,000 g/ha, post-emergence spray, evaluated after 13 days (100=total damage to plant; 0=no damage to plant), read-out: Percentage damage caused to weed species, post-emergence, IPOHE
Method in brief: as §2

Setaria faberi (SETFA) [11] = assay: as above; conditions: 312 h; for pest or weed control at 1000 g/ha: Rate 1,000 g/ha, post-emergence spray, evaluated after 13 days (100=total damage to plant; 0=no damage to plant), read-out: Percentage damage caused to weed species, post-emergence, SETFA
Method in brief: as §2

Solanum nigrum (SOLNI) [12] = assay: as above; conditions: 312 h; for pest or weed control at 1000 g/ha: Rate 1,000 g/ha, post-emergence spray, evaluated after 13 days (100=total damage to plant; 0=no damage to plant), read-out: Percentage damage caused to weed species, post-emergence, SOLNI
Method in brief: as §2

| Structure (SMILES) | pest or weed control at 1000 g/ha [1] [%] | pest or weed control at 1000 g/ha [2] [%] | pest or weed control at 1000 g/ha [3] [%] | pest or weed control at 1000 g/ha [4] [%] | pest or weed control at 1000 g/ha (Setaria faberi (SETFA) [5]) [%] | pest or weed control at 1000 g/ha (Solanum nigrum (SOLNI) [6]) [%] | pest or weed control at 1000 g/ha [7] [%] | pest or weed control at 1000 g/ha [8] [%] | pest or weed control at 1000 g/ha [9] [%] | pest or weed control at 1000 g/ha [10] [%] | pest or weed control at 1000 g/ha (Setaria faberi (SETFA) [11]) [%] | pest or weed control at 1000 g/ha (Solanum nigrum (SOLNI) [12]) [%] | further results |
| --- | --- | --- | --- | --- | --- | --- | --- | --- | --- | --- | --- | --- | --- |
| COC(=O)c1nc(C2CC2)nc(NC(C)c2cccc(C(F)(F)F)c2)c1Cl (stereo not drawn) [Compound 4-179, 5-Chloro-2-cyclopropyl-6-methoxycarbonyl-4-[1-(3-trifluoro-methylphenyl)ethyl-amino]pyrimidine] |  |  |  |  |  |  |  |  |  |  |  |  | pest or weed control at 250 g/ha ([1]; 250 g/ha, evaluated after 13 days (100=total damage; 0=no damage), read-out: Percentage damage ALOMY): 0%; pest or weed control at 250 g/ha ([2]; 250 g/ha, evaluated after 13 days (100=total damage; 0=no damage), read-out: Percentage damage AMARE): 50%; pest or weed control at 250 g/ha ([3]; 250 g/ha, evaluated after 13 days (100=total damage; 0=no damage), read-out: Percentage damage ECHCG): 0%; pest or weed control at 250 g/ha ([4]; 250 g/ha, evaluated after 13 days (100=total damage; 0=no damage), read-out: Percentage damage IPOHE): 0%; pest or weed control at 250 g/ha (Setaria faberi (SETFA) [5]; 250 g/ha, evaluated after 13 days (100=total damage; 0=no damage), read-out: Percentage damage SETFA): 0%; pest or weed control at 250 g/ha (Solanum nigrum (SOLNI) [6]; 250 g/ha, evaluated after 13 days (100=total damage; 0=no damage), read-out: Percentage damage SOLNI): 0%; pest or weed control at 250 g/ha ([7]; post-emergence, 250 g/ha, evaluated after 13 days (100=total damage; 0=no damage), read-out: Percentage damage caused to weed species, ALOMY): 30%; pest or weed control at 250 g/ha ([8]; post-emergence, 250 g/ha, evaluated after 13 days (100=total damage; 0=no damage), read-out: Percentage damage caused to weed species, AMARE): 70%; pest or weed control at 250 g/ha ([9]; post-emergence, 250 g/ha, evaluated after 13 days (100=total damage; 0=no damage), read-out: Percentage damage caused to weed species, ECHCG): 40%; pest or weed control at 250 g/ha ([10]; post-emergence, 250 g/ha, evaluated after 13 days (100=total damage; 0=no damage), read-out: Percentage damage caused to weed species, IPOHE): 60%; pest or weed control at 250 g/ha (Setaria faberi (SETFA) [11]; post-emergence, 250 g/ha, evaluated after 13 days (100=total damage; 0=no damage), read-out: Percentage damage caused to weed species, SETFA): 50%; pest or weed control at 250 g/ha (Solanum nigrum (SOLNI) [12]; post-emergence, 250 g/ha, evaluated after 13 days (100=total damage; 0=no damage), read-out: Percentage damage caused to weed species, SOLNI): 80% |
| COC(=O)c1nc(-c2ccc(Cl)cc2F)nc(NCc2ccco2)c1Cl [Compound 218-48, 5-Chloro-2-(4-chloro-2-fluorophenyl)-4-(furan-2-yl-methyl-amino)-6-methoxy-carbonylpyrimidine] | 70 | 100 | 50 | 50 | 70 | 90 | 60 | 100 | 60 | 90 | 80 | 90 |  |
| COC(=O)c1nc(-c2ccc(C)cc2)nc(NCc2ccco2)c1Cl [Compound 237-48, 5-Chloro-4-(furan-2-ylmethylamino)-6-methoxycarbonyl-2-(4-methylphenyl)-pyrimidine] | 20 | 100 | 20 | 30 | 0 | 0 | 0 | 100 | 0 | 70 | 0 | 60 |  |
| COC(=O)c1nc(C2CC2)nc(N(C)Cc2cccc(F)c2)c1Cl [Compound 5-65, 5-Chloro-2-cyclopropyl-4-[N-(3-fluorophenylmethyl)-N-methyl-amino]-6-methoxy-carbonylpyrimidine] | 20 | 100 | 10 | 100 | 20 | 90 | 30 | 100 | 70 | 90 | 80 | 100 |  |
| C=CCCN(Cc1ccccc1)c1nc(C2CC2)nc(C(=O)OC)c1Cl [Compound 154-60, 4-(N-But-3-enyl-N-phenylmethyl-amino)-5-chloro-2-cyclopropyl-6-methoxycarbonyl-pyrimidine] | 0 | 40 | 0 | 0 | 0 | 0 | 20 | 60 | 20 | 80 | 30 | 50 |  |
